The target of this test is CFTR (Homo sapiens, UniProt P13569). Description: Membrane Potential Dye, Enteroid Assay B. The class given is cell-based. The protocol:
Base medium (ADF+++) consisted of Advanced […], 2 mM Glutamax, 10 mM HEPES, 1 μg/mL penicillin/streptomycin.
Intestinal enteroid maintenance medium (IEMMN) consisted of ADF+++, 1× B27 supplement, 1× N2 supplement, 1.25 mM N-acetyl cysteine, 10 mM Nicotinamide, 50 ng/mL hEGF, 10 nM Gastrin, 1 μg/mL hR-spondin-1, 100 ng/mL hNoggin, TGF-b type 1 inhibitor A-83-01, 100 μg/mL Primocin, 10 μM P38 MAPK inhibitor SB202190.
Bath 1 Buffer consisted of 1 mM MgCl2, 160 mM NaCl, 4.5 mM KCl, 10 mM HEPES, 10 mM Glucose, 2 mM CaCl2).
Chloride Free Buffer consisted of 1 mM Magnesium Gluconate, 2 mM Calcium Gluconate, 4.5 mM Potassium Gluconate, 160 mM Sodium Gluconate, 10 mM HEPES, 10 mM Glucose.
Bath 1 Dye Solution consisted of Bath 1 Buffer, 0.04% Pluronic F127, 20 μM Methyl Oxonol, 30 μM CaCCinh-A01, 30 μM Chicago Sky Blue.
Chloride Free Dye Solution consisted of Chloride Free Buffer, 0.04% Pluronic F127, 20 μM Methyl Oxonol, 30 μM CaCCinh-A01, 30 μM Chicago Sky Blue.
Chloride Free Dye Stimulation Solution consisted of Chloride Free Dye Solution, 10 μM forskolin, 100 μM IBMX, and 300 nM Compound III.
Human intestinal epithelial enteroid cells were obtained from the Hubrecht Institute for Developmental Biology and Stem Cell Research, Utrecht, The Netherlands and expanded in T-Flasks as previously described (Dekkers J F, Wiegerinck C L, de Jonge H R, Bronsveld I, Janssens H M, de Winter-de Groot K M, Brandsma A M, de Jong N W M, Bijvelds M J C, Scholte B J, Nieuwenhuis E E S, van den Brink S, Clevers H, van der Ent C K, Middendorp S and M Beekman J M. A functional CFTR assay using primary cystic fibrosis intestinal organoids. Nat Med. 2013 July; 19(7):939-45.).
3. Enteroid Cell Harvesting and Seeding
Cells were recovered in cell recovery solution, collected by centrifugation at 650 rpm for 5 min at 4° C., resuspended in TrypLE and incubated for 5 min at 37° C. Cells were then collected by centrifugation at 650 rpm for 5 min at 4° C. and resuspended in IEMM containing 10 μM ROCK inhibitor (RI). The cell suspension was passed through a 40 μm cell strainer and resuspended at 1×10^6 cells/mL in IEMM containing 10 μM RI. Cells were seeded at 5000 cells/well into multi-well plates and incubated for overnight at 37° C., 95% humidity and 5% CO2 prior to assay.
5. Membrane Potential Dye, Enteroid Assay B
Enteroid cells were incubated with test compound in IEMM for 18-24 hours at 37° C., 95% humidity and 5% CO2. […] Briefly, cells were washed 5 times in Bath 1 Buffer. Bath 1 Dye Solution was added and the cells were incubated for 25 min at room temperature. Following dye incubation, cells were washed 3 times in Chloride Free Dye Solution. Chloride transport was initiated by addition of Chloride Free Dye Stimulation Solution and the fluorescence signal was read for 15 min. […] Chloride transport was then expressed as a percentage of the chloride transport following treatment with 1 μM (14S)-8-[3-(2-{Dispiro[2.0.2.1]heptan-7-yl}ethoxy)-1H-pyrazol-1-yl]-12,12-dimethyl-2λ^6-thia-3,9,11,18,23-pentaazatetracyclo[17.3.1.111,14.05,10]tetracosa-1(22),5,7,9,19(23),20-hexaene-2,2,4-trione, 3 μM (R)-1-(2,2-difluorobenzo[d][1,3]dioxol-5-yl)-N-(1-(2,3-dihydroxypropyl)-6-fluoro-2-(1-hydroxy-2-methylpropan-2-yl)-1H-indol-5-yl)cyclopropanecarboxamide and 300 nM acute N-[2,4-bis(1,1-dimethylethyl)-5-hydroxyphenyl]-1,4-dihydro-4-oxoquinoline-3-carboxamide triple combination control (% Activity).

The mark [1] stands for this setting: Table 10, read-out: Ent. B EC50.

Where two headings read alike, the source gives them in different places.

The term EC50 denotes the concentration giving half of the maximal effect.

Sequence of CFTR (P13569 with tags, fused parts or gaps DEL508-508): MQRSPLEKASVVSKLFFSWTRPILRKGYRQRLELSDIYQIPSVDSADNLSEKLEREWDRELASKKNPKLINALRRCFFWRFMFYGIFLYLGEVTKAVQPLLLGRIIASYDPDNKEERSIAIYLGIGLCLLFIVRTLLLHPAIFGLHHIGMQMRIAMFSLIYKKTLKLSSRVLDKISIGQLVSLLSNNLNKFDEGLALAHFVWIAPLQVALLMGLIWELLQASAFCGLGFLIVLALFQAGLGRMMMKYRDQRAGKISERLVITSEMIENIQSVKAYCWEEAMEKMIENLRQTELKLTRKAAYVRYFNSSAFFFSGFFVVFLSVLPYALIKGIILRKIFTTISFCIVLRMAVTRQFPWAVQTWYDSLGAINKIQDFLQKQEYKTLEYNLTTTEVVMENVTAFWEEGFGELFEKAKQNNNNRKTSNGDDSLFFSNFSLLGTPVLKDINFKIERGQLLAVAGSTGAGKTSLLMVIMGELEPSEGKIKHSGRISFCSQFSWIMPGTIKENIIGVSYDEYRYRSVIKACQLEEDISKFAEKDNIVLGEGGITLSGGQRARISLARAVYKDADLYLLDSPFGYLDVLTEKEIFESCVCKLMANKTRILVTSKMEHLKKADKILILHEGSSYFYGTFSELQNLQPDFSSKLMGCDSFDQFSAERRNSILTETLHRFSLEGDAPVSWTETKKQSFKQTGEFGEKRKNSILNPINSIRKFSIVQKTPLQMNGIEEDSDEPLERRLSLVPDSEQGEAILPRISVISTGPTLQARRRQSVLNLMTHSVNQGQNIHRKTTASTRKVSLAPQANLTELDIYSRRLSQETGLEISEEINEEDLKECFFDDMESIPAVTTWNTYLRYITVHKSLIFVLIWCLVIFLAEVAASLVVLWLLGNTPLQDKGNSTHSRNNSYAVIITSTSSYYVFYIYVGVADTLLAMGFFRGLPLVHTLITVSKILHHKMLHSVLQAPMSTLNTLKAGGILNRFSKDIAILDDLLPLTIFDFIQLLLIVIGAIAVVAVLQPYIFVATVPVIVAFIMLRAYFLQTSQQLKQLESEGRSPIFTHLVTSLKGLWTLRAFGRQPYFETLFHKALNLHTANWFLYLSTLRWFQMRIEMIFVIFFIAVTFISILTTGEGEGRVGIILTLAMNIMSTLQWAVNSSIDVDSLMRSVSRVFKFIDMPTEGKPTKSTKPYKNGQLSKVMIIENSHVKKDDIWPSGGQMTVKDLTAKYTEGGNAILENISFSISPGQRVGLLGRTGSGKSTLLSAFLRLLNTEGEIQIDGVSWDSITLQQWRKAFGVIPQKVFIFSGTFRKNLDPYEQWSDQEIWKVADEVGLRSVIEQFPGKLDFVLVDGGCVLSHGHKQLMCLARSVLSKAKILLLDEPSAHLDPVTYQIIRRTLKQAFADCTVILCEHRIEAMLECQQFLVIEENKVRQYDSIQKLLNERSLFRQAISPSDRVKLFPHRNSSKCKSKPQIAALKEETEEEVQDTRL

With `Cc1cccc(C)c1-c1cc2nc(n1)NS(=O)(=O)c1cccc(c1)C(=O)N(C1CC(OC(=O)N(C)C)C1)[C@H](CC(C)C)CO2` (stereo partly drawn) [Compound 48, [3-[(11R)-6-(2,6-dimethylphenyl)-11-isobutyl-2,2,13-trioxo-9-oxa-2λ^6-thia-3,5,12,19-tetrazatricyclo[12.3.1.14,8]nonadeca-1(18),4(19),5,7,14,16-hexaen-12-yl]cyclobutyl] N,N-dimethylcarbamate], the “Ent. B Max Activity (%)” value (Table 10) is listed as “++ (++ is 30-60%)”. In addition, the EC50 under setting [1] was below 1000 nM. For `Cc1cccc(C)c1-c1cc2nc(n1)NS(=O)(=O)c1cccc(c1)C(=O)N([C@H]1C[C@@H](OC(F)(F)C(F)(F)F)C1)[C@H](CC(C)C)CO2` [Compound 210], in that order: “++ (++ is 30-60%)” and below 1000 nM. For the compound `Cc1cccc(C)c1-c1cc2nc(n1)NS(=O)(=O)c1cccc(c1)C(=O)N(C1CCC3(CC1)CC3)C[C@@H](C)O2` [Compound 442], the “Ent. B Max Activity (%)” value was “++ (++ is 30-60%)”. Further, the EC50 (read-out: Ent. B EC50) is below 1000 nM. In the case of `Cc1cccc(C)c1-c1cc2nc(n1)NS(=O)(=O)c1cccc(c1)C(=O)N(C1CC(CO)(C(C)(C)O)C1)[C@H](CC(C)(C)C)CO2` (single isomer, unassigned) [Compound 159], the “Ent. B Max Activity (%)” value (Table 10) is “+++ (+++ is >60%)”. Moreover, the EC50 under setting [1] is below 1000 nM.

Regarding `Cc1cccc(C)c1-c1cc2nc(n1)NS(=O)(=O)c1cccc(c1)C(=O)N(C1CC3(CCN(C4COC4)CC3)C1)[C@H](CC(C)C)CO2` [Compound 24, (11R)-6-(2,6-Dimethylphenyl)-11-isobutyl-12-[7-(oxetan-3-yl)-7-azaspiro[3.5]nonan-2-yl]-2,2-dioxo-9-oxa-2λ^6-thia-3,5,12,19-tetrazatricyclo[12.3.1.14,8]nonadeca-1(18),4(19),5,7,14,16-hexaen-13-one], under “Table 9”, the “Ent. B Max Activity (%)” value was “+++ (+++ is >60%)”. For the same compound, the EC50 (Table 9, read-out: Ent. B EC50) is below 1000 nM. As to `COC(=O)N(C)C1CC(N2C(=O)c3cccc(c3)S(=O)(=O)Nc3nc(cc(-c4c(C)cccc4C)n3)OC[C@H]2CC(C)(C)C)C1` (single isomer, unassigned) [Compound 170], the “Ent. B Max Activity (%)” value (Table 10) is “++ (++ is 30-60%)”. For `COCCNC1CC2(C1)CC(N1C(=O)c3cccc(c3)S(=O)(=O)Nc3nc(cc(-c4c(C)cccc4C)n3)OC[C@H]1CC(C)C)C2` (stereo in doubt) [Compound 287], the “Ent. B Max Activity (%)” value (Table 9) is “+++ (+++ is >60%)”. Moreover, the EC50 (Table 9, read-out: Ent. B EC50) was below 1000 nM. With `COCCN1CC(N2C(=O)c3cccc(c3)S(=O)(=O)Nc3nc(cc(-c4c(C)cccc4C)n3)OC[C@H]2CC(C)C)CC1(C)C` (stereo in doubt) [Compound 277], for the setting “Table 9”, the “Ent. B Max Activity (%)” value is on record as “+++ (+++ is >60%)”. The concentration for a half-maximal effect (EC50) (Table 9, read-out: Ent. B EC50) lay in the range of 1000 to 3000 nM. With `Cc1cccc(C)c1-c1cc2nc(n1)NS(=O)(=O)c1cccc(c1)C(=O)N(C1CC(NC(=O)OC(C)C)C1)[C@H](CC(C)(C)C(F)(F)F)CO2` (single isomer, unassigned) [Compound 195], for the setting “Table 10”, the “Ent. B Max Activity (%)” value is “++ (++ is 30-60%)”. In addition, the concentration giving a half-maximal response (EC50) under setting [1] is below 1000 nM. Take `COCCN1CCC(N2C(=O)c3cccc(c3)S(=O)(=O)Nc3nc(cc(-c4c(C)cccc4C)n3)OC[C@H]2CC(C)C)C1` (stereo in doubt) [Compound 294]: the “Ent. B Max Activity (%)” value is on record as “+++ (+++ is >60%)”. Also, the EC50 (read-out: Ent. B EC50) is below 1000 nM. In the case of `COC(=O)N(C)C1CC(N2C(=O)c3cccc(c3)S(=O)(=O)Nc3nc(cc(-c4c(C)cccc4C)n3)OC[C@H]2CC(C)(C)C)C1` (single isomer, unassigned) [Compound 169], the “Ent. B Max Activity (%)” value (Table 10) was “+++ (+++ is >60%)”. Moreover, the EC50 under setting [1] is below 1000 nM. On to `COCCN1CC2(CC(N3C(=O)c4cccc(c4)S(=O)(=O)Nc4nc(cc(-c5c(C)cccc5C)n4)OC[C@H]3CC(C)C)C2)C1` [Compound 104, (11R)-6-(2,6-Dimethylphenyl)-11-isobutyl-12-[2-(2-methoxyethyl)-2-azaspiro[3.3]heptan-6-yl]-2,2-dioxo-9-oxa-2λ^6-thia-3,5,12,19-tetrazatricyclo[12.3.1.14,8]nonadeca-1(18),4(19),5,7,14,16-hexaen-13-one], for which the “Ent. B Max Activity (%)” value (Table 9) was “+++ (+++ is >60%)”. As to `Cc1cccc(C)c1-c1cc2nc(n1)NS(=O)(=O)c1cccc(c1)C(=O)N(C1CCN(C)CC1)CC(CC(C)C)CO2` (stereo not drawn) [Compound 441], where the note is “Table 9”, the “Ent. B Max Activity (%)” value was “+++ (+++ is >60%)”. In addition, the EC50 (Table 9, read-out: Ent. B EC50) was below 1000 nM. Consider `Cc1cccc(C)c1-c1cc2nc(n1)NS(=O)(=O)c1cccc(c1)C(=O)N(C1CC(N)C1)[C@H](CC(C)(C)C)CO2` (single isomer, unassigned) [Compound 165], for which the “Ent. B Max Activity (%)” value (Table 10) was “++ (++ is 30-60%)”. Under setting [1], the half-maximal effective concentration (EC50) is below 1000 nM. Regarding `Cc1cccc(C)c1-c1cc2nc(n1)NS(=O)(=O)c1cccc(c1)C(=O)N(C1CC(N)C1)[C@H](CC(C)(C)C)CO2` (single isomer, unassigned) [Compound 166], where the note is “Table 10”, the “Ent. B Max Activity (%)” value was “++ (++ is 30-60%)”. Also, the EC50 under setting [1] is below 1000 nM. Turning to `Cc1cccc(C)c1-c1cc2nc(n1)NS(=O)(=O)c1cccc(c1)C(=O)N(C1CC(N(C)C)C1)[C@H](CC(C)(C)C)CO2` (stereo partly drawn) [Compound 254], under “Table 10”, the “Ent. B Max Activity (%)” value is listed as “++ (++ is 30-60%)”. In addition, the concentration giving a half-maximal response (EC50) under setting [1] is below 1000 nM.

In the case of `Cc1cccc(C)c1-c1cc2nc(n1)NS(=O)(=O)c1cccc(c1)C(=O)N(C1CC(C)(OC(F)(F)F)C1)[C@H](CC(C)C)CO2` (stereo partly drawn) [Compound 50, (11R)-6-(2,6-dimethylphenyl)-11-isobutyl-12-[3-methyl-3-(trifluoromethoxy)cyclobutyl]-2,2-dioxo-9-oxa-2λ^6-thia-3,5,12,19-tetrazatricyclo[12.3.1.14,8]nonadeca-1(18),4(19),5,7,14,16-hexaen-13-one], the “Ent. B Max Activity (%)” value (Table 10) is listed as “++ (++ is 30-60%)”. Also, the EC50 under setting [1] was below 1000 nM. For the compound `[H][C@]1(N2C(=O)c3cccc(c3)S(=O)(=O)Nc3nc(cc(-c4c(C)cccc4C)n3)OC[C@H]2CC(C)C)C[C@@]2(C[C@H](C(C)(C)O)C2)C1` (stereo in doubt) [Compound 413], under “Table 10”, the “Ent. B Max Activity (%)” value is “+++ (+++ is >60%)”. The EC50 under setting [1] is below 1000 nM. As to `CC(=O)N1CCC12CC(N1C(=O)c3cccc(c3)S(=O)(=O)Nc3nc(cc(-c4c(C)cccc4C)n3)OC[C@H]1CC(C)(C)C)C2` (stereo partly drawn) [Compound 207], the “Ent. B Max Activity (%)” value (Table 10) is given as “+++ (+++ is >60%)”. Moreover, the EC50 under setting [1] was below 1000 nM.

On to `CC(C)C[C@@H]1COc2cc(-c3c(C(F)(F)F)cccc3C(F)(F)F)nc(n2)NS(=O)(=O)c2cccc(c2)C(=O)N1C1CC2(CC2)C1` [Compound 186, (11R)-6-[2,6-Bis(trifluoromethyl)phenyl]-11-isobutyl-2,2-dioxo-12-spiro[2.3]hexan-5-yl-9-oxa-2λ^6-thia-3,5,12,19-tetrazatricyclo[12.3.1.14,8]nonadeca-1(18),4,6,8(19),14,16-hexaen-13-one], for which, for the setting “Table 9”, the “Ent. B Max Activity (%)” value was “++ (++ is 30-60%)”. Also, the EC50 (Table 9, read-out: Ent. B EC50) is below 1000 nM. For `COCCN[C@H]1C[C@@]2(C1)C[C@H](N1C(=O)c3cccc(c3)S(=O)(=O)Nc3nc(cc(-c4c(C)cccc4C)n3)OC[C@H]1CC1(C(F)(F)F)CC1)C2` (stereo partly drawn) [Compound 269], in that order: “+++ (+++ is >60%)” and below 1000 nM.

Take `COC(=O)N1C[C@H]2C[C@@H](C1)C2N1C(=O)c2cccc(c2)S(=O)(=O)Nc2nc(cc(-c3c(C)cccc3C)n2)OC[C@H]1CC(C)(C)C` (single isomer, unassigned) [Compound 143]: the “Ent. B Max Activity (%)” value (Table 10) was “++ (++ is 30-60%)”. For the same compound, the EC50 (read-out: Ent. B EC50, Table 10) is below 1000 nM.

(Values after US20230382925A1, “MODULATORS OF CYSTIC FIBROSIS TRANSMEMBRANE CONDUCTANCE REGULATOR” (VERTEX PHARMACEUTICALS INCORPORATED, priority 2020, published 2023).)
